Counter-ions that a name gives are not always drawn.

The target of the test is T1, H+,K+-ATPase (Sus scrofa, UniProt P19156).
T1 construct: a microsomal fraction of gastric mucosa was prepared from the stomach of swine; from tissue; host or cells: swine stomach, gastric mucosa microsomal fraction
T1 sequence (P19156 2-1034 limits assumed): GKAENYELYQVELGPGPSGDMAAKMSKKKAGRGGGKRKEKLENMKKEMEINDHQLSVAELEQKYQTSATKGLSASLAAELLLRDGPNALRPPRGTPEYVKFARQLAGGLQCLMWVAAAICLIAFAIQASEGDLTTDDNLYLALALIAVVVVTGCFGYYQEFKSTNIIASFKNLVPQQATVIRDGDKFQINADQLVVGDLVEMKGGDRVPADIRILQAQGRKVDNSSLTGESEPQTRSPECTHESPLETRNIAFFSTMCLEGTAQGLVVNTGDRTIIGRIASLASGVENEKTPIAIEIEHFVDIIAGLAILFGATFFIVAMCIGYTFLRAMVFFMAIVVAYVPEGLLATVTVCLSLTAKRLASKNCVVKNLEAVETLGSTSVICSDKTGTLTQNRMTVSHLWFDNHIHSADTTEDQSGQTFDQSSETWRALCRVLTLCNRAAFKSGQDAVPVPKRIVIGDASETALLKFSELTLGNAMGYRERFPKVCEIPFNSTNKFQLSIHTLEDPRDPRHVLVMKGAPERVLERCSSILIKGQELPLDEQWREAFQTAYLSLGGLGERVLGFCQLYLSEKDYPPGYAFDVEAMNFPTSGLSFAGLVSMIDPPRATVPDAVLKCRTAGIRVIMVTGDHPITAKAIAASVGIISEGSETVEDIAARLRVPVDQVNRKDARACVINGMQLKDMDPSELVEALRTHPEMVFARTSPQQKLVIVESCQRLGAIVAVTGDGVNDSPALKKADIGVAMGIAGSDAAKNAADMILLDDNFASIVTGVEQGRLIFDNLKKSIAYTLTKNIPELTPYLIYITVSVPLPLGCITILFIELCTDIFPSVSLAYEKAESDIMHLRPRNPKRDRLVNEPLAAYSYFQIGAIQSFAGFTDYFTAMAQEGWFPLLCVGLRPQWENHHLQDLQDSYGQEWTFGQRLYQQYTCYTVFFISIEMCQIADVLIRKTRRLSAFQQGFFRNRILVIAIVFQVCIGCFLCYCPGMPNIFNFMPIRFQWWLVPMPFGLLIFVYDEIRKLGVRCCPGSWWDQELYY
T1 sequence (P18434 whole entry partner): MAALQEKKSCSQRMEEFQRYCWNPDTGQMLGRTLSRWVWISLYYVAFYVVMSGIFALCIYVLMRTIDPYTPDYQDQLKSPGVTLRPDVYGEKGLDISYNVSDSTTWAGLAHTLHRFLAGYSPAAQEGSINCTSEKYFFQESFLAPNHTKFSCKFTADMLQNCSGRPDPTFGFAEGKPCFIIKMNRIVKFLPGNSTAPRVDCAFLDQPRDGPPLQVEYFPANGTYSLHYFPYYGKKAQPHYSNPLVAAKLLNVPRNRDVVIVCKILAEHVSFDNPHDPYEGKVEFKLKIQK
Nature of the test: Proton Potassium-Adenosine Triphosphatase (H+,K+-ATPase) inhibitory activity test. Format: biochemical. As to conditions: microsomal fraction of swine gastric mucosa; pH 6.5, 37° C., 10 mmol/L potassium chloride; malachite green colorimetry at 610 nm. How it is done: Proton Potassium-Adenosine Triphosphatase (H^+,K^+-ATPase) Inhibitory Activity Test
According to the method of Wallmark et al. [Biochim. Biophys. Acta, 728, 31 (1983)], a microsomal fraction of gastric mucosa was prepared from the stomach of swine. First, the stomach was removed, washed with tap water, and immersed in 3 mol/L sodium chloride, and the surface of the mucosa was wiped with a paper towel. The gastric mucosa was removed, minced, and homogenized in a 0.25 mol/L sucrose solution (pH 6.8) containing 1 mmol/L EDTA and 10 mmol/L tris-hydrochloric acid using polytron (Kinematica). The obtained homogenate was centrifuged at 20,000×g for 30 min and the supernatant was centrifuged at 100,000×g for 90 min. The precipitate was suspended in 0.25 mol/L sucrose solution, the suspension was superimposed on a 0.25 mol/L sucrose solution containing 7.5% Ficoll, and centrifuged at 100,000×g for 5 hr. The fraction containing the interface between the both layers was recovered, and centrifugally washed with 0.25 mol/L sucrose solution.
The obtained microsomal fraction was used as an H^+/K^+-ATPase preparation.
To 50 mmol/L HEPES-tris buffer (5 mmol/L magnesium chloride, 10 mmol/L potassium chloride, 10 μmol/L valinomycin, pH=6.5, 40 μL) containing 2.5 μg/mL enzyme preparation based on the protein concentration was added a test compound (5 μL) dissolved in 10% dimethyl sulfoxide solution, and the mixture was incubated at 37° C. for 30 min. A 2 mmol/L adenosine triphosphate tris salt solution (50 mmol/L HEPES-tris buffer (5 mmol/L magnesium chloride, pH 6.5), 5 μL) was added to start an enzyme reaction. The enzyme reaction was performed at 37° C. for 20 min, and then a malachite green solution (a mixture of 0.12% malachite green sulfate (2.5 mol/L) solution, 7.5% ammonium molybdate and 11% Tween 20 at a ratio of 100:25:2, 15 μL) was added to stop the reaction. The reaction mixture was stood at room temperature for 15 min, and the resulting reaction product of inorganic phosphorus and malachite green was measured by colorimetric quantification at a wavelength of 610 nm. In addition, the amount of inorganic phosphoric acid in a reaction solution free of potassium chloride was also measured in the same manner, and the value was extracted from that in the presence of potassium chloride, whereby the H^+,K^+-ATPase activity was measured. The inhibitory rate (%) was determined from the activity value of the control and that at each concentration of the test compound, and 50% inhibitory concentration (IC50) to H^+,K^+-ATPase was determined.
For orientation: IC50 means the point on the concentration scale where inhibition reaches its midpoint. A higher IC50 goes with a need for much substance. `CNCc1cn(Cc2ccc(F)cc2)c(-c2ccccc2)n1` [Example 3, 1-[1-(4-fluorobenzyl)-2-phenyl-1H-imidazol-4-yl]-N-methylmethanamine dihydrochloride] yielded a concentration for half-maximal inhibition (IC50) of 309000 nM. With `CNCc1nc(-c2ccccc2)n(Cc2ccc(F)cc2)c1Cl` [Example 6, 1-[5-chloro-1-(4-fluorobenzyl)-2-phenyl-1H-imidazol-4-yl]-N-methylmethanamine oxalate] the figure was 1400 nM; with `CNCc1cc(-c2ccccc2F)c(Sc2cccc(OC)c2)s1` [Example 10, 1-{4-(2-fluorophenyl)-5-[(3-methoxyphenyl)thio]-2-thienyl}-N-methylmethanamine fumarate], 170 nM.

Turning to `CNCc1cc(-c2ccccc2F)c([S+]([O-])c2cccc(OC)c2)s1` (stereo not shown) [Example 11, 1-{4-(2-fluorophenyl)-5-[(3-methoxyphenyl)sulfinyl]-2-thienyl}-N-methylmethanamine fumarate], it took 400 nM to reach half-maximal inhibition (IC50). `CNCc1cc(-c2cccnc2F)c(Sc2nccs2)s1` [Example 18, 1-{4-(2-fluoropyridin-3-yl)-5-[(1,3-thiazol-2-yl)thio]thiophen-2-yl}-N-methylmethanamine fumarate] had an IC50 of 2200 nM. Regarding `CNCc1cc(-c2cccnc2F)c(Sc2ccoc2C)s1` [Example 19, 1-{4-(2-fluoropyridin-3-yl)-5-[(2-methylfuran-3-yl)thio]thiophen-2-yl}-N-methylmethanamine hydrochloride], half-maximal inhibition (IC50) was put at 220 nM. `CNCc1cc(Sc2ccc(Cl)nc2)n(-c2ccccc2Cl)n1` [Example 27, 1-{1-(2-chlorophenyl)-5-[(6-chloropyridin-3-yl)thio]-1H-pyrazol-3-yl}-N-methylmethanamine hydrochloride] came in with an IC50 of 31 nM.
